Results from patent US20240245057A1, “INSECTICIDAL COMPOSITION FOR AGRICULTURAL OR HORTICULTURAL USE AND METHOD OF CONTROLLING AGRICULTURAL OR HORTICULTURAL PEST” (SDS BIOTECH K.K, priority 2021, published 2024).
Structures can show the parent of a compound that is named as a salt. Where two headings read alike, the source gives them in different places.

How the values were obtained:
Format in all cases: in vivo
[1] = system: 3rd instar larvae of Spodoptera litura; assay: Test of efficacy against 3rd instar larvae of Spodoptera litura (dried Bt cultures mixed into artificial feed); details: for Measured insecticidal rate (%): agent alone, 2 μg/g Feed, 25° C., 5 days; for insecticidal efficacy against the 3rd instar larvae of Spodoptera litura (in words): alone, application concentration of 2 μg/g feed
Experimental: A suspension of dried Btk culture or dried Bta culture was prepared by adding distilled water to the dried Btk culture or dried Bta culture prepared in Preparation Example 1. This suspension was admixed with prumycin hydrochloride prepared in Production Example 1 or kanosamine hydrochloride (Sigma-Aldrich Japan, LLC) at the prescribed concentration to prepare a solution. The obtained solution was admixed with artificial feed (Insecta LFS (manufactured by Nosan Corporation)) as shown in Tables 1 to 6 so that the content of the dried Btk culture or Bta culture was 0.2 to 2 mg/g of the artificial feed and the content of prumycin hydrochloride or kanosamine hydrochloride was 2 μg/g of the artificial feed. The artificial feed containing the dried Btk culture or dried Bta culture mixed with prumycin hydrochloride or kanosamine hydrochloride was placed on a petri dish (90 mm in diameter and 15 mm in height), and ten 3rd instar larvae of Spodoptera litura reared in a rearing room at 25° C. were released into the petri dish (triplicate). Each petri dish was closed and kept at 25° C. for 5 days.
The number of dead insects was then macroscopically counted by observing the inside of the petri dish, and the (measured) insecticidal rate (%) of the number of dead insects to the total number of reared insects was determined.
In addition, the suspension of dried Btk culture alone, the suspension of dried Bta alone, prumycin hydrochloride alone, kanosamine hydrochloride alone, or a combination of prumycin hydrochloride and kanosamine hydrochloride was added to the artificial feed to achieve the application concentration per g of the artificial feed as shown in Tables 1 to 6. Except the above, ten 3rd instar larvae of Spodoptera litura were released into a petri dish (triplicate) and kept at 25° ° C. for 5 days, as in the above Example.
The inside of the petri dish was then observed and the (measured) insecticidal rate (%) was determined in the same way as in the above Example.
The expected theoretical insecticidal rate (%) when treated with the dried Btk culture or dried Bta culture mixed with prumycin hydrochloride or kanosamine hydrochloride was determined by Colby's calculation formula ([…]). […]
The presence or absence of synergistic effect was determined by comparing the theoretical and measured insecticidal rates (%) in the case of using the dried Btk culture or dried Bta culture in combination with prumycin hydrochloride or kanosamine hydrochloride.
Specifically, the case where the measured value was larger than the theoretical value was judged as “having a synergistic effect”, and the case where the measured value was equal to or smaller than the theoretical value was judged as “having no synergetic effect” with respect to the insecticidal rate (%).

[2] = system: 3rd instar larvae of Spodoptera litura; details: for insecticidal efficacy against the 3rd instar larvae of Spodoptera litura (in words): hydrochloride alone; for Number of dead insects/Number of test insects: hydrochloride alone 10 μg/g Feed, insecticidal protein Absent, 5 days
Experimental: Each artificial feed containing or free of each substance thus obtained was placed on a petri dish (90 mm in diameter and 15 mm in height), and ten 3rd instar larva of Spodoptera litura reared in a rearing room at 25° C. were released into each petri dish (3 replicates). Each petri dish was closed and kept at 25° C. for 5 days.
After that, the number of dead insects was macroscopically counted by observing the inside of the petri dish. The LC50 values were calculated by the probit method, and the increase in insecticidal activity due to the addition of prumycin or kanosamine was calculated based on the same formula as in Test Example 4 above.

[3] = system: 3rd instar larvae of Helicoverpa armigera; details: for insecticidal efficacy against the 3rd instar larvae of Helicoverpa armigera (in words): hydrochloride alone; for Number of dead insects/Number of test insects: 4 days
Excerpt: Each insecticidal protein solution obtained was admixed with prumycin hydrochloride prepared in Production Example 1 or kanosamine hydrochloride (Sigma-Aldrich Japan, LLC.) at a prescribed concentration to prepare a solution containing the insecticidal protein and prumycin hydrochloride or kanosamine hydrochloride. The obtained solution was admixed with artificial feed (Insecta LFS (manufactured by Nosan Corporation)) as shown in Tables 10 to 13 so that the content of each insecticidal protein was 0.063 to 8 μg/g of the artificial feed and the content of prumycin hydrochloride or kanosamine hydrochloride was 10 μg/g of the artificial feed. In this way, each artificial feed containing the insecticidal protein and prumycin hydrochloride or kanosamine hydrochloride was prepared. In addition, the above-described insecticidal protein solution, prumycin hydrochloride, or kanosamine hydrochloride alone was admixed with the artificial feed as shown in Tables 10 to 13 so that the content of each insecticidal protein was 0.063 to 8 μg/g of the artificial feed or the content of prumycin hydrochloride or kanosamine hydrochloride was […] of the artificial feed, respectively. In this way, each artificial feed containing the insecticidal protein, prumycin hydrochloride, or kanosamine hydrochloride alone was prepared. Each artificial feed containing or free of each substance thus obtained was placed on a petri dish (35 mm in diameter and 10 mm in height), and one 3rd instar larva of Helicoverpa armigera reared in a rearing room at 25° C. was released into each petri dish (10 replicates). Each petri dish was closed and kept at 25° ° C. for 4 days.
The number of dead insects was then macroscopically examined by observing the inside of each petri dish, and the LC50 value was calculated by the probit method. Next, based on the following equation, the ratio of the test plot without prumycin hydrochloride or kanosamine hydrochloride to the test plot with prumycin hydrochloride or kanosamine hydrochloride was calculated to determine the increase in insecticidal activity when prumycin hydrochloride or kanosamine hydrochloride was added.

[4] = hydrochloride alone 10 μg/g Feed, insecticidal protein Absent

Compound	Measured insecticidal rate (%) [1]	insecticidal efficacy against the 3rd instar larvae of Spodoptera litura (in words) [1]	insecticidal efficacy against the 3rd instar larvae of Spodoptera litura (in words) [2]	Number of dead insects/Number of test insects [2]	insecticidal efficacy against the 3rd instar larvae of Helicoverpa armigera (in words) [3]	Number of dead insects/Number of test insects [3, 4]	Number of dead insects/Number of test insects ([3]; insecticidal protein alone 0.063 μg/g Feed)	Number of dead insects/Number of test insects ([3]; insecticidal protein alone 0.125 μg/g Feed)	Number of dead insects/Number of test insects ([3]; insecticidal protein alone 0.25 μg/g Feed)	Number of dead insects/Number of test insects ([3]; insecticidal protein alone 0.5 μg/g Feed)	Number of dead insects/Number of test insects ([3]; insecticidal protein alone 1 μg/g Feed)	Number of dead insects/Number of test insects ([3]; insecticidal protein alone 2 μg/g Feed)
N[C@H]1[C@H](O)[C@@H](CO)OC(O)[C@@H]1O (stereo partly drawn) [Kanosamine hydrochloride, 3-amino-3-deoxy-D-glucopyranose]	0.0%	no insecticidal efficacy	no insecticidal efficacy	0/10	no insecticidal efficacy	0/10	–	–	–	–	–	–
CC(N)C(=O)NC1COC(O)C(N)C1O [Prumycin hydrochloride, 4-N-D-alanyl-2,4-diamino-2,4-dideoxyarabinose]	0.0%	no insecticidal efficacy	no insecticidal efficacy	0/10	no insecticidal efficacy	0/10	–	–	–	–	–	–
Cry1A(c): Bacillus thuringiensis insecticidal protein expressed and purified in E. coli	–	–	–	–	–	–	0/10	0/10	0/10	1/10	6/10	7/10
